Assays:
[1] = usual marketed dosages, daily for five days or weekly; cited from earlier work
amyloid plaques = test: Amyloid plaque histology (6E10) in J20 mice; type: in vivo; details: TOP treated J20 mice at 12.5 months of age vs J20 mice treated with PBS
Excerpt: Immunolabeling was done on 30 μm brain sections from the J20 TOP treated mice and PBS treated wild-type and J20 mice. Staining was done using the anti-Aβ antibody 6E10 (Covance) and GFAP (Cell Signaling). Plaque load and astrocytosis were quantified using ImageJ. Total plaque area was expressed as a percentage of the total hippocampal area.

Ube3A [2] = test: Ube3A protein in hippocampus of J20 AD mice; type: in vivo; details: single bilateral TOP injection 275 μg at 9-10 months, measured at 11-12 months
Excerpt: The J20 transgenic mouse line also used in the studies expresses a mutated human APP (hAPP: K670N/M671L and V717F) under the control of the platelet-derived growth factor promoter (Mucke et al. 2000). These mice have deficits in learning and memory, inhibition of long-term potentiation, loss of dendritic spines, profuse amyloid plaques, and increased phosphorylation of the tau protein. These mice also have increased RhoA-GTP activity and progressive decrease in spinal density when treated with oligomeric Aβ. See Pozueta et al. 2013.
(§1) Whole frozen mouse hippocampi, human brain specimens, and cultured cells were homogenized in RIPA buffer (ThermoFisher) supplemented with protease and phosphatase inhibitor cocktail (ThermoFisher), using a Teflon dounce homogenizer and centrifuged at 14,000 rpm for 10 minutes at 4° C. Supernatants were collected, normalized by BCA assay (ThermoFisher), and prepared for loading using sample buffer (SB) 4× (ThermoFisher) and dithiothreitol (DTT) 10× (ThermoFisher).
Controls were wild-type mice and J20 mice injected with PBS.

wild-type mice [3] = test: Morris water maze in wild-type mice; type: in vivo; details: single TOP injection 275 μg, vs PBS-injected mice
Experimental: Mice were trained to find a hidden platform in a circular pool of 1.10 m diameter located in a room with extra maze cues. The location of the platform ([…] diameter) was constant for each mouse during training and was placed 1 cm beneath the surface of the water, maintained at 24° C.±2° C. throughout the duration of the test. At the end of test, the mice were dried off and placed in a clean cage with extra paper towels to prevent hypothermia Animals were then monitored inside their cage until eating, drinking, and ambulating normally Mice were trained in sessions consisting of four trials a day for five consecutive days. Mice started from different quadrants on a random basis during each trial and all four quadrants were used on any given day. The maximum swimming time allowed on each trial was 60 seconds.
Probe trials (1 session: 1 trials/session) were conducted 24 hours after the last training trial. During the probe test the platform was removed and mice were free to swim in the pool for 60 seconds. Time spent in each quadrant was measured. Trial and probe test sessions were recorded and analyzed with a video tracking system (Noldus). After the probe, mice were tested in the visible test for two consecutive days, 2 sessions/day with 3 trials/session to assess whether the mice were able to locate a visible platform (its location varied between the three trials of the same session). […]

NMDAR1 = test: Western blot of NMDAR1 in hippocampal neurons; type: cell-based, rat; details: neurons pretreated with 300 nM TOP, oAβ for 24 hours
Experimental: as §1
To further test whether increasing Ube3A could rescue the effects of oAβ, cultured primary hippocampal neurons (14 DIV) were pretreated with 300 nM of TOP or control PBS. The neurons were then treated with oAβ for 24 hours, and whole cell lysates prepared for Western blot analysis, or fixed for microscopy.
Cells were also assessed for localization of PSD95 and NMDAR1, markers of postsynaptic terminals. Cells treated with TOP had increased levels of PSD95 and NMDAR1 (FIGS. 11B and 11C).

wild-type mice [4] = test: Dendritic spine density in hippocampus of wild-type mice; type: in vivo; details: single TOP injection 275 μg
Experimental: The protocol for diolistic labeling of neurons was adapted from Gan et al. 2000 and Gan et al. 2009. Briefly, 100 mg of tungsten particles (1.1 μm diameter; Bio-Rad) were thoroughly precipitated with 5.0 mg of lipophilic dye (DiI; ThermoFisher) and dissolved in 100 μl of methylene chloride. Dye-coated particles were shot 2-3 times into the cells using the Helios gene gun system (Bio-Rad) and left in 0.1 M PBS overnight to allow dye diffusion along neuronal processes. Cells were post-fixed with 4% paraformaldehyde (Pierce) for 1 hour to preserve staining, then mounted onto glass slides using Gel Mount (Biomeda) and stored at 4° C. in the dark.
Labeled neurons were imaged using the Laser Scanning Microscope (LSM) 510 Meta confocal microscope (Zeiss), equipped with 40×1.3 NA and 100×1.4 NA oil-immersion objectives. The NIH Image software program ImageJ was used the quantify diolistic-labeled cultured neurons. An average of 12 compressed images (20 μm thick) consisting of pyramidal neurons were quantified for each treatment. Spines were counted with NeuronStudio software in a blinded manner and spine density was represented in number of spine per μm dendritic length. Statistical analysis was performed using the statistics package GraphPad Prism.
Controls were wild type mice injected with PBS.

Ube3A [5] = test: Ube3A levels in astrocyte-enriched cultures; type: cell-based, rat; details: astrocyte-enriched cultures treated with oAβ (results not shown)
Experimental: Since Ube3A is also expressed in astrocytes (Grier et al. 2015), it was determined whether Ube3A levels were also altered in these cells.

Ube3A [6] = test: Ube3A protein degradation in B35 cells (cycloheximide chase); type: cell-based, rat; details: CHX and oAβ for 4, 8 and 16 hours
Experimental: FIG. 5A is a graph showing the quantification of Western blots of the levels of Ube3A and GAPDH (as house-keeping protein) of B35 cells treated with cycloheximide (CHX) or CHX and oAβ for 4, 8 and 16 hours. […] Graphs represent mean values and standard deviation. Significance determined by one-way ANOVA followed by Tukey Post Hoc multiple comparisons.

c-Abl = test: Western blot of phosphorylated c-Abl; type: cell-based, rat; details: oAβ treated vs vehicle (FIG. 4)
Excerpt: FIG. 4A is a quantification of Western blots of phosphorylated c-Abl in vehicle treated (control) and DPH treated hippocampal neurons. FIG. 4B is a quantification of Western blots of phosphorylated Ube3A in vehicle treated (control) and DPH treated hippocampal neurons. […] FIG. 4D is a quantification from Western blots of phosphorylated Ube3A in vehicle treated (control), oAβ treated, and oAβ with STI treated hippocampal neurons. Graphs represent mean values and standard deviation. Significance determined by unpaired student's t-test in FIGS. 4A and 4B, and one-way ANOVA followed by Tukey Post Hoc multiple comparisons in FIGS. 4C and 4D.
It was hypothesized that oAβ could affect the ligase function of Ube3A. One important regulatory mechanism of Ube3A is through c-Abl-mediated phosphorylation tyrosine residue 636 (Y636), which impairs its E3 ligase activity (Chan et al. 2013). […] Since phospho-Ube3A antibodies are not available it was decided to test the hypothesis in B35 neuroblastoma cell line overexpressing HA-tagged Ube3A for immunoprecipitation.

Row | Molecule | hematologic toxicity [1] | nonhematologic toxicity [1] | accumulation of amyloid plaques (amyloid plaques) | levels of Ube3A in the hippocampus (Ube3A [2]) | memory (Morris Water Maze) (wild-type mice [3]) | levels of NMDAR1 (NMDAR1) | dendritic spine density (wild-type mice [4]) | Ube3A levels (Ube3A [5]) | degradation rate of the Ube3A protein (Ube3A [6]) | c-Abl phosphorylation (c-Abl)
1 | CC[C@@]1(O)C(=O)OCc2c1cc1n(c2=O)Cc2cc3c(CN(C)C)c(O)ccc3nc2-1 [TOP, topotecan] | reversible manageable | mild | approximately equal accumulation | increased | significant enhancement | increased | significant increase | – | – | –
2 | oAβ: synthetic soluble oligomeric Aβ1-42 | – | – | – | – | – | – | – | modest, but significant increase | significantly increased | induces

Reference: patent publication US20200138921A1, “METHODS OF PREVENTING AND TREATING DISEASES CHARACTERIZED BY SYNAPTIC DYSFUNCTION AND NEURODEGENERATION INCLUDING ALZHEIMER'S DISEASE” (The Trustees of Columbia University in the City of New York, priority 2017, published 2020)
